# Several values for one entry are separate records, joined by “and”; a condition that tells them apart may be missing. Equal values may be shown once. Read-outs that look alike come from different tables or passages of the source.
# Key:
# [1] = test system: kochia (KCHSC, Kochia scoparia); test: Greenhouse postemergence herbicidal effect; format: in vivo; details: for Obs % visual injury: KCHSC
# Procedure, shortened: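 Plants at the second or third true leaf stage received overhead spray at 187 L/ha, with the pyridine carboxylate (plus cloquintocet-mexyl safener) alone or with ALS herbicides in 1.25% v/v crop oil. Rates are in g ae/ha or g ai/ha. Visual injury versus solvent-blank controls was scored 0–100% after 20-22 d in the greenhouse.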
# [2] = test system: spring wheat (TRZAS); format: in vivo, Triticum aestivum; details: TRZAS
# Procedure, shortened: (§1)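 Plants at the second or third true leaf stage, grown at about 23/22 °C day/night with a 14 h photoperiod, were sprayed postemergence. Emulsifiable concentrates held cloquintocet-mexyl safener at 120 g ai/L; rates are g ae/ha (pyridine carboxylate) or g ai/ha (ALS inhibitor). Injury was scored visually against solvent-blank controls at 20-22 d (0-100%).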
# [3] = test system: wild chamomile (MATCH, Matricaria chamomilla); test: Greenhouse postemergence herbicidal effect; format: in vivo; details: MATCH; Compound B 10 g/ha
# Procedure, shortened: as §1
# [4] = test system: Russian thistle (SASKR, Salsola kali); test: Greenhouse postemergence herbicidal effect; format: in vivo; details: SASKR; Compound B 10 g/ha
# Procedure, shortened: as §1
# [5] = test system: pigweed (AMARE, Amaranthus retroflexus); test: Greenhouse postemergence herbicidal effect; format: in vivo; details: for Obs % visual injury: AMARE
# Procedure, shortened: as §1
# [6] = test system: winter rape (BRSNW, Brassica napus); test: Greenhouse postemergence herbicidal effect; format: in vivo; details: BRSNW; Compound B 10 g/ha
# Procedure, shortened: as §1
# [7] = test system: wild pansy (VIOTR, Viola tricolor); test: Greenhouse postemergence herbicidal effect; format: in vivo; details: for Obs % visual injury: VIOTR
# Procedure, shortened: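 Injury was rated visually after 20-22 d on a 0 (none) to 100% (complete kill) scale relative to solvent-sprayed controls, with sub-irrigation to avoid wash-off. Rates were given in g ae/ha or g ai/ha depending on component.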
# [8] = test system: wild buckwheat (POLCO, Polygonum convolvulus); test: Greenhouse postemergence herbicidal effect; format: in vivo; details: for Obs % visual injury: POLCO
# Procedure, shortened: as §1
# [9] = test system: Canadian thistle (CIRAR, Cirsium arvense); test: Greenhouse postemergence herbicidal effect; format: in vivo
# Procedure, shortened: as §1
# [10] = test system: pineapple weed (MATMT, Matricaria discoidea); test: Greenhouse postemergence herbicidal effect; format: in vivo; details: MATMT; Compound B 10 g/ha
# Procedure, shortened: as §1
# [11] = test system: chickweed (STEME, Stellaria media); test: Greenhouse postemergence herbicidal effect; format: in vivo; details: for Obs % visual injury: STEME
# Procedure, shortened: as §1
# [12] = Compound B (without cloquintocet-mexyl safener) 10 g/ha
compound,measurement,setting,value
"C#CCOC(=O)c1nc(-c2ccc3cc[nH]c3c2F)c(F)c(N)c1Cl [Compound B, propargyl 4-amino-3-chloro-5-fluoro-6-(7-fluoro-1H-indol-6-yl)pyridine-2-carboxylate]",pest or weed control at 10 g/ha,"[1]; Bassia scoparia, post-emergence, 10 g/ha, read-out: % visual injury, Obs",73%
same,Obs % visual injury,[1]; Compound B 5 g/ha,60%
same,Obs % visual injury,[1]; Compound B 10 g/ha,65%
same,Obs % visual injury,[1]; [12],96%
same,Obs % visual injury,[2]; Compound B 5 g/ha,13%
same,Obs % visual injury,[2]; [12],28%
same,Obs % visual injury,[3],20% and 18%
same,Obs % visual injury,[4],63%
same,"% visual injury, Obs",[5]; 10 g/ha,73%
same,Obs % visual injury,[5]; Compound B 5 g/ha,93%
same,Obs % visual injury,[5]; Compound B 10 g/ha,84% and 94%
same,Obs % visual injury,[6],93%
same,"% visual injury, Obs",[7]; 10 g/ha,8%
same,Obs % visual injury,[7]; Compound B 5 g/ha,20%
same,Obs % visual injury,[7]; Compound B 10 g/ha,18%
same,"% visual injury, Obs",[8]; 10 g/ha,90%
same,Obs % visual injury,[8]; Compound B 5 g/ha,88%
same,Obs % visual injury,[8]; Compound B 10 g/ha,97% and 87%
same,Obs % visual injury,"[9]; CIRAR, Compound B 5 g/ha",50%
same,pest or weed control at 10 g/ha,"[9]; Cirsium arvense, post-emergence, 10 g/ha, read-out: % visual injury, Obs",55%
same,Obs % visual injury,[10],20%
same,"% visual injury, Obs",[11]; 10 g/ha,90%
same,Obs % visual injury,[11]; Compound B 5 g/ha,85%
same,Obs % visual injury,[11]; Compound B 10 g/ha,95%

# Source: patent US12285012B2, “Compositions comprising pyridine carboxylate herbicides with acetolactate synthase (ALS) inhibitor herbicides” (Corteva Agriscience LLC, priority 2018, dated 2025)
